One data set can be described thus: physchem. Conditions: 25 °C, aqueous buffer.
A further data set relates to HDAC Class II. Kind of data set: HDAC Class II inhibition. Type of data set: biochemical. Conditions: no activity against HDAC Class II.
The subject of data set [1] is peptide-specific CD8 T cells. Description: Immunogenicity experiment with CXD101 and peptide vaccine. Format: in vivo, C57BL/6 mice. On the procedure:
C57BL/6 mice were treated with orally administrated CXD101 at 10 mg/kg for 14 days (5 days on/2 days off) and intravenous D8V and 18V peptides vaccination (days 1 and 7) with respect to vehicle only control; n=5 per group; • B) 18V-peptide specific CD8 positive T cells with tetramers (i) and general T cell activation (CD8+ CD44+ CD62L− tetramer positive T cells) measurements by flow cytometry; n=5; • C) Representative examples of immunohistochemical staining of H3AcK9 in lungs (i) collected from C57BL/6 mice at 14 days treated with 25 mg/kg CXD101 and non-treated control. Original magnification: 20×, scale bar, 50 μm; and 63×; scale bar, 16 μm. n=3; (ii) results were quantified by ImageJ Fiji software and normalised optical density was presented as a mean+/−SD. […]
Twenty C57BL/6 female mice (5 mice per group: control; CXD101 treated; peptide vaccinated; CXD101/peptide vaccinated) where 10 mice were vaccinated intravenously with 30 μg of peptides encoding CD8 T cell epitopes from the beta-galactosidase gene, βgale96-103 (DAPIYTNV; D8V), the βgal497-504 (ICPMYARV; 18V) (Genscript) with 30 μg polylC (InVivogen) and 25 μg anti-CD40 (2bScientific). […] Mice were bled at day 6 and 13 post prime and the levels of peptide-specific CD8 T cells measured by detection with tetramers followed by flow cytometry.

`Cc1nn(C)cc1CN1CCC(c2ccc(C(=O)Nc3ccccc3N)cc2)CC1` [CXD101/zabinostat, N-(2-aminophenyl)-4-(1-[(1,3-dimethyl-1H-pyrazol-4-yl)methyl]piperidin-4yl)benzamide]: the solubility (in general, the concentration that dissolves in the medium under given conditions) in “physchem” is no less than 500 µg/mL. The IC50 – broadly, the concentration that inhibits the measured activity by half – in the data set with HDAC Class II is no less than 2500 nM. Moreover, in data set [1] (C57BL/6 mice, oral CXD101, intravenous D8V and 18V peptides vaccination, tetramers and flow cytometry (FIG. 7)), the “immunogenicity against a peptide-based vaccine” value is “induces immunogenicity against a peptide-based vaccine”. In addition, the “immune response to an immunogenic protein” value in data set [1] (normal healthy cells and animals) is reported as “potentiates the immune response”.
